Entries after “also recorded” stand apart in the source; their conditions may differ.
Tested on: hEGFR
Assay: hEGFR dose titration in HT-29 cells (electroporation, hEGFR ELISA)
Format: cell-based, human
Settings: 0.01-10 ug siRNA per 2×10^6 cells/200 μl, 48 hours post transfection
Procedure: The selected hEGFR-siRNA, hEGFR-25-1 and hEGFR-25-2, were tested for their capability of inhibiting hEGFR expression in a dose-dependent manner. The HT-29 cells were transfected with the EGFR-siRNAs in a range of 0.01-10 ug siRNA per 2×10^6 cells/200 μl using an electroporation mediated transfection method. The concentration of EGFR protein in the transfected HT-29 cells was measured at 48 hours post transfection using a hEGFR ELISA kit (R&D Systems, Inc.). The concentration of hEGFR protein was normalized against total cellular protein and the percentage of hEGFR inhibition was normalized against cells treated with a mock process without siRNA.
Two siRNA candidates, hEGFR-25-1 and hEGFR-25-2, were further tested for activity in a dose titration experiment.

Substance | dose-dependent inhibition of hEGFR production
5′-r(CACAGUGGAGCGAAUUCCUUUGGAA)-3′ (chain 2 UUCCAAAGGAAUUCGCUCCACUGUG; siRNA; RNA, backbone not given here) [hEGFR-25-1] | inhibited hEGFR expression in a dose-dependent manner; also recorded: dose-dependent inhibition
5′-r(CGCAAAGUGUGUAACGGAAUAGGUA)-3′ (chain 2 UACCUAUUCCGUUACACACUUUGCG; siRNA; RNA, backbone not given here) [hEGFR-25-2] | inhibited hEGFR expression in a dose-dependent manner; also recorded: dose-dependent inhibition
